According to patent US12103952B2, “Methods for expressing proteins in axons” (Cornell University, priority 2010, dated 2024):

System: CREB
Assay: CREB levels in severed axons by immunofluorescence
Type: cell-based, rat
Conditions: for NGF-dependent restoration of CREB immunofluorescence: 1 μM cycloheximide or 40 μM anisomycin, concurrent with NGF replacement
Description: FIGS. 7A-B are results showing the axonal translation and retrograde transport of endogenous CREB. (A) CREB levels in severed axons of E15 DRGs were assayed by immunofluorescence with a CREB-specific antibody. CREB was depleted on removal of NGF, with near complete loss of fluorescence signals by 3 hours. […] The error bars represent s.e.m. (n=40). (B) CREB is depleted from axon terminals in a microtubule-dependent manner. CREB levels in severed axons were monitored, as in A, after removal and restoration of NGF, in the presence of LLnL or colchicine. Colchicine, but not LLnL, blocked the reduction in CREB levels following removal of NGF. The error bars represent s.e.m. (n=40).
E15 rat or E13 mouse embryonic dorsal root ganglion (DRG) explants were plated on glass-bottom culture dishes (MatTek) or glass coverslips pre-coated with 33 μg/ml poly-D-lysine and 1 μg/ml laminin. CREB^α/Δ−/+ animals used to generate CREB^α/Δ−/− embryos were from Jackson Labs. E15 dissociated DRG neurons were prepared as described by Wu et al., Nature 436, 1020-1024 (2005). DRGs were cultured in B27/Neurobasal medium (Invitrogen) supplemented with 100 ng/ml nerve growth factor (NGF) and […] 5′-fluorodeoxyuridine (5-FdU) for 3 days. siRNA-mediated knockdown in DRG neurons has been described previously by Higuchi et al., Biochemical & Biophysical Research Communications 301, 804-809 (2003) and was performed using siRNAs listed in Table S3. For measurements of CREB levels in isolated axons, axons were severed from cell bodies by removing the explant with a flame-sharpened Pasteur pipette (Wu et al., Nature 436, 1020-1024 (2005)). Modified Boyden chambers were based on the procedure of Twiss (Zheng et al., Journal of Neuroscience 21, 9291-9303 (2001)) and modified to obtain distal axons as described by Wu et al., Nature 436, 1020-1024 (2005). mRNA from harvested axons (Wu et al., Nature 436, 1020-1024 (2005)) was used to prepare a cDNA library using a modified, unbiased single cell protocol as described below. See also Tietjen et al., Neuron 38, 161-175 (2003). Compartmented (Campenot) cultures were prepared as described below. See also Campenot, Proc Natl Acad Sci USA 74, 4516-4519 (1977)).
Images and measurements of signals in axons were taken from the terminal 50 μm of the axon, except where indicated. Analyzed axons were a minimum of 2000 μm for all experiments. DRGs were fixed with 4% PFA in CBS overnight at 4° C., permeabilized with 0.5% Triton X-100/TBS, and blocked in 4% BSA/TBS for 1 hour. DRGs were labeled with antibodies (Table S4) in 2% BSA/0.1% Triton X-100/TBS overnight at 4° C. For image acquisition details, see below.
The axonal localization of CREB was also examined by immunofluorescence. Axons were severed from cultured DRG explants to rule out potential contributions from anterograde transport of cell body-derived CREB. […] Although the majority of CREB protein localized to the nucleus, with substantially lower levels in axons (FIG. 4D), the immunofluorescence signal in axons was specific. Similar immunofluorescence staining was seen using a different CREB-specific antibody that recognized a non-overlapping epitope.
The importin proteins, which bind nuclear-localization sequences (NLS) (Goldfarb et al., Trends in Cell Biology 14, 505-514 (2004)), are present in axons and mediate the retrograde trafficking of axonally-injected fluorescently-labeled NLS peptides (Hanz et al., Neuron 40, 1095-1104 (2003)). Since CREB contains a NLS that mediates its nuclear localization (Waeber & Habener, Mol Endocrinol 5, 1418-1430 (1991)), axonal CREB may be retrogradely transported to the cell body. To determine if endogenously-expressed CREB is retrogradely trafficked, we examined the time course of CREB reduction in axons upon replacement of media with NGF-free media. […]

Compound | NGF-dependent restoration of CREB immunofluorescence | CREB immunoreactivity in severed axons (100 ng/ml NGF + 1 μM cycloheximide, 3 hours) | time for axonal CREB levels to decrease to baseline (after NGF removal) | time for CREB levels to return to original levels (following restoration of NGF) | recovery in CREB levels (within 30 min of NGF restoration)
COc1ccc(C[C@H]2NC[C@H](O)[C@H]2OC(C)=O)cc1 [anisomycin] | prevented the restoration of CREB immunofluorescence | – | – | – | –
C[C@@H]1C[C@@H]([C@H](O)CC2CC(=O)NC(=O)C2)C(=O)[C@@H](C)C1 [cycloheximide] | prevented the restoration of CREB immunofluorescence | loss of CREB immunoreactivity | – | – | –
NGF: nerve growth factor | – | – | ≤ 3 h | 2 h | ~40%
